Measured values from patent publication US11214594B2, “Antimicrobial peptide having synergistic antibacterial effect with antibiotics on multidrug resistant bacteria, and use thereof” (priority 2016, dated 2022).
≈ marks a conversion by molar mass, not a printed value. Where a SMILES comes first, the peptide text is derived from it. [ ]: non-standard residue; d: D form.

Key:
[1] = test system: MDREC 1238; format: cell-based, Escherichia coli; settings: MDREC 1238; agent alone
In short: (§1)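 MIC read-out = lowest peptide level with no bacterial proliferation. Strains diluted in MH medium to 2×10^6 CFU; peptide twofold serial dilutions in MH added 1:1 in microtiter wells.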

[2] = test system: MDRPA 2002; format: cell-based, Pseudomonas aeruginosa; settings: MDRPA 2002; agent alone
In short: as §1

[3] = test system: MDRPA 2003; format: cell-based, Pseudomonas aeruginosa; settings: MDRPA 2003; agent alone
In short: as §1

[4] = test system: MDRAB 12036; format: cell-based, Acinetobacter baumannii; settings: MDRAB 12036; agent alone
In short: as §1

[5] = test system: S. typhimurium; assay: microbe, parasite or virus in culture; format: cell-based, Salmonella typhimurium
In short: as §1

[6] = test system: MDRST 8007; assay: Minimal inhibitory concentration (MIC), single agent; format: cell-based, Salmonella typhimurium; settings: agent alone
In short: as §1

[7] = test system: MRSA 3114; format: cell-based, Staphylococcus aureus; settings: MRSA 3114; agent alone
In short: as §1

[8] = test system: MRSA 3126; format: cell-based, Staphylococcus aureus; settings: MRSA 3126; agent alone
In short: as §1

[9] = test system: MDREC 1229; assay: MIC of antibiotic during combined treatment with antimicrobial peptide; format: cell-based, Escherichia coli
In short: (§2)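 Antibiotic MIC came from antibiotic dilutions added to bacteria (2×10^6 CFU/ml, MH medium) already combined with peptide serially diluted 2:1 from its own MIC. Swapping the roles of the two agents gave the peptide MIC.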

[10] = test system: MDRAB 12035; assay: as above; format: cell-based, Acinetobacter baumannii
In short: as §2

[11] = test system: E. coli; format: cell-based, Escherichia coli
Protocol: (§3) A synergistic effect of a peptide and antibiotics was evaluated at antibacterial activity against a strain by using an MIC value determined for each mixed solution. For the evaluation, a fractional inhibitory concentration (FIC) value was used (Elion, Gertrude B., Samuel Singer, and George H. Hitchings. Journal of Biological Chemistry 208.2 (1954): 477-488.).
(§4) A method generally used to decide the synergistic effect by using the FIC values is a checkerboard assay, and is a method that selects the lowest FIC index value in a well in which the growth of bacteria is suppressed. However, the selection of one FIC index in the method has a problem in that when the antibacterial activity of the antibiotics is lower, the FIC index is calculated so as to have a big synergistic effect, and is not accurate and has many experimental errors. Thus, with respect to the FIC index calculated by [Equation 1], an average FIC index was again calculated by using the following [Equation 2] (He, Jing, Charles G. Starr, and William C. Wimley. Biochimica et Biophysica Acta (BBA)-Biomembranes 1848.1 (2015): 8-15.).

[12] = test system: MDREC 1229; format: cell-based, Escherichia coli
Protocol: as §3, §4

[13] = test system: A. baumannii; format: cell-based, Acinetobacter baumannii
Protocol: as §3, §4

[14] = test system: MDRAB 12035; format: cell-based, Acinetobacter baumannii
Protocol: as §3, §4

[15] = test system: multi-drug resistant bacteria; assay: MIC, summary statements for multi-drug resistant bacteria; format: cell-based
In short: as §1

[16] = peptide treatment concentration 1 μg/ml
[17] = peptide treatment concentration 2 μg/ml
[18] = peptide treatment concentration 4 μg/ml
[19] = peptide treatment concentration 6 μg/ml
[20] = peptide treatment concentration 8 μg/ml
[21] = peptide treatment concentration 16 μg/ml
[22] = peptide treatment concentration 32 μg/ml
[23] = peptide treatment concentration 64 μg/ml
[24] = peptide combined with erythromycin
[25] = peptide combined with linezolid
[26] = peptide combined with vancomycin

## CC[C@H](C)[C@H](NC(=O)[C@H](CCCCN)NC(=O)[C@H](Cc1c[nH]c2ccccc12)NC(=O)[C@@H](N)CCCNC(=N)N)C(=O)N[C@@H](Cc1ccccc1)C(=O)N[C@@H](CCCCN)C(=O)N[C@@H](CCCCN)C(=O)N[C@H](C(=O)N[C@H](CC(C)C)C(=O)N[C@@H](CCCCN)C(=O)N[C@@H](CC(C)C)C(=O)N[C@@H](CC(C)C)C(=O)N[C@@H](Cc1c[nH]cn1)C(=O)N[C@@H](CCCCN)C(=O)N[C@@H](Cc1ccccc1)C(=O)N[C@@H](CCCCN)C(=O)N[C@@H](CCCCN)C(=O)N[C@@H](Cc1ccccc1)C(N)=O)[C@@H](C)CC [PapMA-21, RWK IFK KIl KLL HKF KKF-NH2] (H-RWKIFKKI[dL]KLLHKFKKF-NH2; N-terminus assumed)
[1]
  Minimal inhibitory concentration MIC: 32 µg/mL (≈ 13.3 µM)
[2]
  Minimal inhibitory concentration MIC: 32 µg/mL (≈ 13.3 µM)
[3]
  Minimal inhibitory concentration MIC: 32 µg/mL (≈ 13.3 µM)
[4]
  Minimal inhibitory concentration MIC: 32 µg/mL (≈ 13.3 µM)
[5]
  Minimal inhibitory concentration MIC: 32 µg/mL (≈ 13.3 µM)
[6]
  Minimal inhibitory concentration MIC: 64 µg/mL (≈ 26.7 µM)
[7]
  Minimal inhibitory concentration MIC: >128 µg/mL
[8]
  Minimal inhibitory concentration MIC: >128 µg/mL
[9]; [16]
  Antibiotic MIC, Erythromycin: 128 µg/mL
  Antibiotic MIC, Linezolid: >128 µg/mL
  Antibiotic MIC, Vancomycin: >128 µg/mL
[9]; [17]
  Antibiotic MIC, Erythromycin: 64 µg/mL
  Antibiotic MIC, Linezolid: >128 µg/mL
  Antibiotic MIC, Vancomycin: >128 µg/mL
[9]; [18]
  Antibiotic MIC, Erythromycin: 32 µg/mL
  Antibiotic MIC, Linezolid: 128 µg/mL
  Antibiotic MIC, Vancomycin: >128 µg/mL
[9]; [19]
  Antibiotic MIC, Erythromycin: 8 µg/mL
  Antibiotic MIC, Linezolid: 64 µg/mL
  Antibiotic MIC, Vancomycin: >128 µg/mL
[9]; [20]
  Antibiotic MIC, Erythromycin: 4 µg/mL
  Antibiotic MIC, Linezolid: 32 µg/mL
  Antibiotic MIC, Vancomycin: 128 µg/mL
[9]; [21]
  Antibiotic MIC, Erythromycin: 2 µg/mL
  Antibiotic MIC, Linezolid: 16 µg/mL
  Antibiotic MIC, Vancomycin: 16 µg/mL
[9]; [22]
  Antibiotic MIC, Erythromycin: 0 µg/mL
  Antibiotic MIC, Linezolid: 0 µg/mL
  Antibiotic MIC, Vancomycin: 0 µg/mL
[9]; [23]
  Antibiotic MIC, Erythromycin: 0 µg/mL
  Antibiotic MIC, Linezolid: 0 µg/mL
  Antibiotic MIC, Vancomycin: 0 µg/mL
[10]; [16]
  Erythromycin MIC during combined treatment with peptide: 32 µg/mL
  Linezolid MIC during combined treatment with peptide: >128 µg/mL
  Vancomycin MIC during combined treatment with peptide: >128 µg/mL
[10]; [17]
  Erythromycin MIC during combined treatment with peptide: 32 µg/mL
  Linezolid MIC during combined treatment with peptide: >128 µg/mL
  Vancomycin MIC during combined treatment with peptide: >128 µg/mL
[10]; [18]
  Erythromycin MIC during combined treatment with peptide: 16 µg/mL
  Linezolid MIC during combined treatment with peptide: 64 µg/mL
  Vancomycin MIC during combined treatment with peptide: 128 µg/mL
[10]; [19]
  Erythromycin MIC during combined treatment with peptide: 4 µg/mL
  Linezolid MIC during combined treatment with peptide: 32 µg/mL
  Vancomycin MIC during combined treatment with peptide: 64 µg/mL
[10]; [20]
  Erythromycin MIC during combined treatment with peptide: 1 µg/mL
  Linezolid MIC during combined treatment with peptide: 16 µg/mL
  Vancomycin MIC during combined treatment with peptide: 32 µg/mL
[10]; [21]
  Erythromycin MIC during combined treatment with peptide: 0.5 µg/mL
  Linezolid MIC during combined treatment with peptide: 8 µg/mL
  Vancomycin MIC during combined treatment with peptide: 16 µg/mL
[10]; [22]
  Erythromycin MIC during combined treatment with peptide: 0 µg/mL
  Linezolid MIC during combined treatment with peptide: 0 µg/mL
  Vancomycin MIC during combined treatment with peptide: 0 µg/mL
[10]; [23]
  Erythromycin MIC during combined treatment with peptide: 0 µg/mL
  Linezolid MIC during combined treatment with peptide: 0 µg/mL
  Vancomycin MIC during combined treatment with peptide: 0 µg/mL
[11]; [24]
  Average FIC index, Erythromycin: 0.15
[11]; [25]
  Average FIC index, Linezolid: 0.35
[11]; [26]
  Average FIC index, Vancomycin: 0.21
[12]; [24]
  Average FIC index, Erythromycin: 0.15
[12]; [25]
  Average FIC index, Linezolid: 0.28
[12]; [26]
  Average FIC index, Vancomycin: 0.26
[13]; [24]
  Average FIC index, Erythromycin: 0.40
[13]; [25]
  Average FIC index, Linezolid: 0.35
[13]; [26]
  Average FIC index, Vancomycin: 0.11
[14]; [24]
  Average FIC index, Erythromycin: 0.49
[14]; [25]
  Average FIC index, Linezolid: 0.22
[14]; [26]
  Average FIC index, Vancomycin: 0.17
[15]
  Antibacterial activity relative to PapMA-1: twice to four times higher
